This is an account of results in patent US12459912B2 (priority 2020, dated 2025).

A word on the EC50: it is the concentration needed to bring the measured effect to its halfway point.

Values joined by “and” are separate entries in the source; they are usually repeats but may differ in a detail not shown here. Identical values can stand only once. Bounds are passed on as bounds.

The target in assay [1] is CCKAR (Cholecystokinin Receptor A) (Homo sapiens, UniProt P32238). The experiment in a line: CCKAR/Calcium Flux. It is filed as cell-based.
For assay [2], the target named is ADORA2A (Adenosine Receptor A2A) (Homo sapiens, UniProt P29274). As to the kind of experiment: ADORA2A/Calcium Flux. It is filed as cell-based. (In general: A change in cytosolic calcium serves as a functional read-out for many receptors and channels.)
For assay [3], the target named is T1, PDE3A (cGMP-inhibited cyclic nucleotide phosphodiesterase 3A) (Homo sapiens, UniProt Q14432).
T1 construct: purchased Signal Chem
As to the kind of experiment: PDE3A/Enzymatic. It is filed as biochemical.

In assay [4] the target is 5-Hydroxytryptamine (Serotonin) Receptor 2B (5-HT2B) (Homo sapiens, UniProt P41595). The experiment in a line: 5-HT2B/Calcium Flux. It is filed as cell-based. To be noted: EC50 (μM).
For assay [5], the target named is 5-Hydroxytryptamine (Serotonin) Receptor 1A (5-HT1A) (Homo sapiens, UniProt P08908). As to the kind of experiment: 5-HT1A/cAMP. It is filed as cell-based.
Assay [6] has as its target AR (Nuclear Hormone Androgen Receptor) (Homo sapiens, UniProt P10275). As to the kind of experiment: AR/NHR Nuclear Translocation. It is filed as cell-based.
Assay [7] addresses DRD2S (Dopamine Receptor D2) (Homo sapiens, UniProt P14416). As to the kind of experiment: DRD2S/cAMP. It is filed as cell-based.
Assay [8] has as its target ADRA1A (Adrenergic Receptor on α1A) (Homo sapiens, UniProt P35348). As to the kind of experiment: ADRA1A/Calcium Flux. It is filed as cell-based. To be noted: EC50 (μM).
The target of assay [9] is T2, ROCK1 (Rho Associated Coiled-Coil Containing Protein Kinase 1) (Homo sapiens, UniProt Q13464).
T2 construct: made in house; host or cells: E. coli BL21-derived host (T7 phage) or HEK-293
The experiment in a line: ROCK1/Binding (KINOMEscan).

The target in assay [10] is CNR1 (Cannabinoid Receptor 1) (Homo sapiens, UniProt P21554). As to the kind of experiment: CNR1/cAMP. It is filed as cell-based.
In assay [11] the target is OPRD1 (Opioid Receptor Delta 1) (Homo sapiens, UniProt P41143). The experiment in a line: OPRD1/cAMP. It is filed as cell-based.
The target of assay [12] is T3, nAChR(a4/b2) (Nicotinic acetylcholine Receptor α4 β2) (Homo sapiens, UniProt P17787+P43681).
T3 construct: expressed in transfected cells
The experiment in a line: cell-based. The conditions noted are these: EC50 (μM).

As for `CNC(C)Cc1ccc2ccsc2c1` (centres unmarked) [drawing 522], the EC50 in assay [1] is over 10 µM; in assay [2], over 10 µM; in assay [3], over 10 µM; in assay [4] (agonist) it was over 10 µM; in assay [4] (antagonist), 0.072 µM; in assay [5] it was over 10 µM. For the same molecule, the EC50 is over 10 µM in [6]; over 10 µM in [7]; over 10 µM in assay [8] (agonist); 3.43 µM in [8] (antagonist); over 10 µM in [9]; over 10 µM in assay [10]. Also, the EC50 was over 10 µM in [11]; > 10 µM and 4.44 µM in assay [12].
